Like-named read-outs stand apart in the source and are kept apart here.

From patent publication US11001561B2, “Pyrimidinone derivatives as SHP2 antagonists” (MERCK PATENT GMBH, priority 2019, dated 2021) come the findings set out here.

One assay deals with pERK1/2 in KYSE520 cells. The experiment in a line: p-Erk cellular assay in KYSE520 (Mesoscale). It counts as cell-based. Conditions: read-out: pERK1/2 in Cell KYSE520 IC50. Here is the method: p-Erk Cellular Assay in KYSE520: The effect of SHP2 inhibitors on pERK level was assessed using phospho-specific antibody using Mesoscale quantification platform. For measuring change in pERK levels using mesoscale, 30,000 cells of KYSE520 cells were plated in 96-well tissue culture treated plate in 175 μl volume of media. After an overnight incubation at 37° C., various SHP2 inhibitors were added in different concentration to each well maintaining duplicate wells across plates and incubated with compounds for 2 h at 37° C. followed by a wash with ice cold PBS buffer. The cells were then lysed in lysis buffer and processed and analyzed for p-ERK/ERK as per manufacturer's instructions (Mesoscale discovery, cat No. […]-3).

The target of assay [1] is Full length SHP2 protein (Recombinant Human SHP-2) (Homo sapiens (Human), UniProt Q06124). The assay can be described thus: SHP2 biochemical assay (DiFMUP substrate, activating peptide IRSI_2pY). The note with it: activating peptide IRSI_2pY 140 nM, DiFMUP, 60 min.
Experimental: The inhibition of SHP2 by compounds of the invention was monitored using the surrogate substrate DiFMUP after protein activation by a peptide bearing two appropriately spaced phosphotyrosine. […] The generation of the DiFMU product by activated SHP2 was monitored through Fluorescence measurement with a PerkinElmer Envision reader. The inhibitor dose response curves were analyzed with Genedata Screener.
Setting [2] is: read-out: SHP-2 biochemical assay IC50.
Setting [3] is: SHP-2 biochemical assay IC50 (μM).

Full length SHP2 protein (Recombinant Human SHP-2), sequence (Q06124 2-593): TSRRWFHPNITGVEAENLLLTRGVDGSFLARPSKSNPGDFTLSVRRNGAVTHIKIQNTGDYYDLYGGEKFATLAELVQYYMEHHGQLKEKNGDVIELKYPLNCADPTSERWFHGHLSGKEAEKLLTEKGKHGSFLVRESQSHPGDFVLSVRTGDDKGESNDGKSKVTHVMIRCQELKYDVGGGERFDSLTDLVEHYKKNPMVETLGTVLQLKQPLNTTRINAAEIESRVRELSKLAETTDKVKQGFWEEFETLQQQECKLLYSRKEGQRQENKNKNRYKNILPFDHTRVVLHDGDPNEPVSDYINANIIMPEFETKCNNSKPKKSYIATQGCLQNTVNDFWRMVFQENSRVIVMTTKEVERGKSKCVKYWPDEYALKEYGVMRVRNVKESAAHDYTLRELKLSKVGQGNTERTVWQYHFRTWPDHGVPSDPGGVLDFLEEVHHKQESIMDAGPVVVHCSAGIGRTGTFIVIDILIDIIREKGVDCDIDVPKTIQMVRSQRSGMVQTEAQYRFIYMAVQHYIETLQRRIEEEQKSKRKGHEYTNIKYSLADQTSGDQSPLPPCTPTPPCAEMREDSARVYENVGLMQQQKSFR

For the molecule `C[C@@H]1OCC2(CCN(c3cc(=O)n(-c4cccc(Cl)c4Cl)c(N)n3)CC2)[C@@H]1N` [Compound 5, 2-amino-6-[(3S,4S)-4-amino-3-methyl-2-oxa-8-azaspiro[4.5]decan-8-yl]-3-(2,3-dichlorophenyl)-3,4-dihydropyrimidin-4-one], the IC50 with pERK1/2 in KYSE520 cells (Homo sapiens, KYSE-520, 2 h) was 14500 nM; in assay [1] (setting [2]), 0.76 µM.

With `Cc1nc(N2CCC3(CCC[C@H]3N)CC2)cc(=O)n1-c1cccc(Cl)c1Cl` [Compound 27, 6-{(R)-1-amino-8-azaspiro[4.5]decan-8-yl}-3-(2,3-dichlorophenyl)-2-methyl-3,4-dihydropyrimidin-4-one], the IC50 in the assay on pERK1/2 in KYSE520 cells (Homo sapiens, KYSE-520, 2 h) was 239 nM; in assay [1] (setting [2]) it was 0.051 µM.

In the case of `Cc1c(N2CCC3(CC2)Cc2ccccc2[C@H]3N)nc(C)n(-c2cccc(Br)c2Cl)c1=O` [Compound 104, 6-[(1S)-1-amino-1,3-dihydrospiro[indene-2,4′-piperidin]-1′-yl]-3-(3-bromo-2-chlorophenyl)-2,5-dimethyl-3,4-dihydropyrimidin-4-one], the IC50 in the assay on pERK1/2 in KYSE520 cells (Homo sapiens, KYSE-520, 2 h) worked out at 26 nM; in assay [1] (setting [2]), 0.005 µM.

As for `Cc1c(N2CCC3(CCC[C@H]3N)CC2)nc(N)n(-c2cccc(Cl)c2Cl)c1=O` (single isomer, unassigned) [Compound 78d], the IC50 worked out at 1330 nM in the assay with pERK1/2 in KYSE520 cells (Homo sapiens, KYSE-520, 2 h) and 0.19 µM in assay [1] (setting [3]).

For the molecule `Cc1c(N2CCC3(CC2)Cc2ccccc2[C@H]3N)nc(C)n(-c2ccc(F)c(F)c2Cl)c1=O` [Compound 113, 6-[(1S)-1-amino-1,3-dihydrospiro[indene-2,4′-piperidin]-1′-yl)-3-(2-chloro-3,4-difluorophenyl)-2,5-dimethyl-3,4-dihydropyrimidin-4-one], the IC50 was found to be 15 nM in the assay on pERK1/2 in KYSE520 cells (Homo sapiens, KYSE-520, 2 h) and 0.006 µM in assay [1] (setting [2]).

As for `Cc1c(F)ccc(-n2c(C)nc(N3CCC4(CC3)CO[C@@H](C)[C@H]4N)c(C)c2=O)c1Cl` [Compound 103, 6-((3S,4S)-4-Amino-3-methyl-2-oxa-8-aza-spiro[4.5]dec-8-yl)-3-(2-chloro-4-fluoro-3-methyl-phenyl)-2,5-dimethyl-3H-pyrimidin-4-one], the IC50 was found to be 2740 nM in the assay on pERK1/2 in KYSE520 cells (Homo sapiens, KYSE-520, 2 h) and 0.067 µM in assay [1] (setting [2]).

For the molecule `Cc1c(N2CCC3(CC2)CO[C@@H](C)[C@H]3N)nc(C)n(-c2ccc(F)c(Cl)c2Cl)c1=O` [Compound 99, 6-((3S,4S)-4-Amino-3-methyl-2-oxa-8-aza-spiro[4.5]dec-8-yl)-3-(2,3-dichloro-4-fluoro-phenyl)-2,5-dimethyl-3H-pyrimidin-4-one], the IC50 with pERK1/2 in KYSE520 cells (Homo sapiens, KYSE-520, 2 h) came to 955 nM; in assay [1] (setting [2]) it was 0.028 µM.

`Cc1c(N2CCC3(CC2)Oc2cnccc2[C@H]3N)nc(C)n(-c2cccc(Cl)c2Cl)c1=O` (single isomer, unassigned) [Compound 80a]: the IC50 is above 10000 nM with pERK1/2 in KYSE520 cells (Homo sapiens, KYSE-520, 2 h) and 1.4 µM in assay [1] (setting [3]).

On to `Cc1c(N2CCC3(CC2)Cc2ccccc2[C@H]3N)nc(C)n(-c2cccc(F)c2Cl)c1=O` [Compound 112, 6-[(1S)-1-amino-1,3-dihydrospiro[indene-2,4′-piperidin]-1′-yl]-3-(2-chloro-3-fluorophenyl)-2,5-dimethyl-3,4-dihydropyrimidin-4-one], for which the IC50 was determined as 14 nM in the assay on pERK1/2 in KYSE520 cells (Homo sapiens, KYSE-520, 2 h) and 0.004 µM in assay [1] (setting [2]).

`Cc1c(N2CCC3(CC2)C[C@H](C)C[C@H]3N)nc(C)n(-c2cccc(Cl)c2Cl)c1=O` (atropisomer, axis not shown) [Compound 111a, (3M)-6-[(1R,3S)-1-amino-3-methyl-8-azaspiro[4.5]decan-8-yl]-3-(2,3-dichlorophenyl)-2,5-dimethyl-3,4-dihydropyrimidin-4-one]: the IC50 in the assay on pERK1/2 in KYSE520 cells (Homo sapiens, KYSE-520, 2 h) came out at 720 nM; in assay [1] (setting [2]), 0.093 µM.

For `Cc1c(N2CCC3(CC2)Cc2ccccc2[C@H]3N)nc(C)n(-c2cccc(C#N)c2Cl)c1=O` [Compound 108, 3-4-[(1S)-1-amino-1,3-dihydrospiro[indene-2,4′-piperidin]-1′-yl]-2,5-dimethyl-6-oxo-1,6-dihydropyrimidin-1-yl-2-chlorobenzonitrile], the IC50 stood at 32 nM with pERK1/2 in KYSE520 cells (Homo sapiens, KYSE-520, 2 h) and 0.007 µM in assay [1] (setting [3]).

Turning to `Nc1nc(N2CCC3(CC2)Cc2ccccc2[C@H]3N)cc(=O)n1-c1cccc(Cl)c1Cl` [Compound 118, 2-amino-6-[(3S)-3-amino-1,3-dihydrospiro[indene-2,4′-piperidin]-1′-yl]-3-(2,3-dichlorophenyl)-3,4-dihydropyrimidin-4-one], the IC50 in the assay on pERK1/2 in KYSE520 cells (Homo sapiens, KYSE-520, 2 h) stood at 51 nM; in assay [1] (setting [2]), 0.016 µM.

Consider `Cc1c(N2CCC3(CC2)CO[C@@H](C)[C@H]3N)nc(N)n(-c2cccc(Cl)c2Cl)c1=O` [Compound 116, 2-Amino-6-((3S,4S)-4-amino-3-methyl-2-oxa-8-aza-spiro[4.5]dec-8-yl)-3-(2,3-dichloro-phenyl)-5-methyl-3H-pyrimidin-4-one], for which the IC50 in the assay on pERK1/2 in KYSE520 cells (Homo sapiens, KYSE-520, 2 h) stood at 2190 nM; in assay [1] (setting [2]), 0.2 µM.

As for `Cc1nc(N2CCC3(CC2)Cc2ccccc2[C@H]3N)cc(=O)n1-c1cccc(Cl)c1Cl` (single isomer, unassigned) [Compound 119b], the IC50 with pERK1/2 in KYSE520 cells (Homo sapiens, KYSE-520, 2 h) worked out at 5 nM; in assay [1] (setting [2]) it was 0.0008 µM.

Turning to `Cc1c(N2CCC3(CC2)CO[C@@H](C)[C@H]3N)nc(C)n(-c2cccc(Cl)c2Br)c1=O` [Compound 97, 6-((3S,4S)-4-Amino-3-methyl-2-oxa-8-aza-spiro[4.5]dec-8-yl)-3-(2-bromo-3-chloro-phenyl)-2,5-dimethyl-3H-pyrimidin-4-one], the IC50 turned out to be 1300 nM with pERK1/2 in KYSE520 cells (Homo sapiens, KYSE-520, 2 h) and 0.078 µM in assay [1] (setting [2]).

In the case of `Cc1c(N2CCC(C)(CN)CC2)nc(C)n(-c2cccc(Cl)c2Cl)c1=O` [Compound 18, 6-[4-(aminomethyl)-4-methylpiperidin-1-yl]-3-(2,3-dichlorophenyl)-2,5-dimethyl-3,4-dihydropyrimidin-4-one], the IC50 is 1320 nM in the assay with pERK1/2 in KYSE520 cells (Homo sapiens, KYSE-520, 2 h) and 0.37 µM in assay [1] (setting [2]).

Turning to `[2H]C([2H])([2H])c1c(N2CCC3(CC2)CO[C@@H](C)[C@H]3N)nc(C)n(-c2cccc(Cl)c2Cl)c1=O` (single isomer, unassigned) [Compound 63b], the values for the IC50 (in the assay on pERK1/2 in KYSE520 cells (2 h); in assay [1] (setting [3])) were 177 nM and 0.015 µM, respectively.

Turning to `Cc1c(N2CCC3(CC2)Oc2ncccc2[C@@H]3N)nc(C)n(-c2cccc(Cl)c2Cl)c1=O` [Compound 79b, (3M)-6-[(3S)-3-amino-3H-spiro[furo[2,3-b]pyridine-2,4′-piperidin]-1′-yl]-3-(2,3-dichlorophenyl)-2,5-dimethylpyrimidin-4-one], the IC50 was 102 nM in the assay on pERK1/2 in KYSE520 cells (Homo sapiens, KYSE-520, 2 h) and 0.006 µM in assay [1] (setting [3]).

Take `Cc1nc(N2CCC(N)(CCO)CC2)cc(=O)n1-c1cccc(Cl)c1Cl` [Compound 26, 6-[4-amino-4-(2-hydroxyethyl)piperidin-1-yl]-3-(2,3-dichlorophenyl)-2-methyl-3,4-dihydropyrimidin-4-one]: the IC50 in the assay with pERK1/2 in KYSE520 cells (Homo sapiens, KYSE-520, 2 h) stood at 2290 nM; in assay [1] (setting [2]) it was 0.38 µM.

Consider `Cc1nc(N2CCC(N)(CO)CC2)cc(=O)n1-c1cccc(Cl)c1Cl` [Compound 29, 6-[4-amino-4-(hydroxymethyl)piperidin-1-yl]-3-(2,3-dichlorophenyl)-2-methyl-3,4-dihydropyrimidin-4-one], for which the IC50 in the assay on pERK1/2 in KYSE520 cells (Homo sapiens, KYSE-520, 2 h) stood at 2780 nM; in assay [1] (setting [2]), 0.51 µM.

Take `Cc1c(N2CCC3(CCC3N)CC2)nc(C)n(-c2cccc(Cl)c2Cl)c1=O` (centres unmarked) [Compound 82, 6-1-amino-7-azaspiro[3.5]nonan-7-yl-3-(2,3-dichlorophenyl)-2,5-dimethyl-3,4-dihydropyrimidin-4-one]: the IC50 with pERK1/2 in KYSE520 cells (Homo sapiens, KYSE-520, 2 h) is 6630 nM; in assay [1] (setting [2]) it was 0.56 µM.

On to `Cc1c(N2CCC3(CC2)CO[C@@H](C)[C@H]3N)nc(C)n(-c2cccc(F)c2Cl)c1=O` [Compound 96, 6-((3S,4S)-4-Amino-3-methyl-2-oxa-8-aza-spiro[4.5]dec-8-yl)-3-(2-chloro-3-fluoro-phenyl)-2,5-dimethyl-3H-pyrimidin-4-one], for which the IC50 turned out to be 2000 nM in the assay on pERK1/2 in KYSE520 cells (Homo sapiens, KYSE-520, 2 h) and 0.15 µM in assay [1] (setting [2]).

`Cc1c(N2CCC3(CC2)Oc2cnccc2[C@@H]3N)nc(C)n(-c2cccc(Cl)c2Cl)c1=O` (single isomer, unassigned) [Compound 80b]: the IC50 with pERK1/2 in KYSE520 cells (2 h) was 16000 nM; in assay [1] (setting [3]) it was above 10 µM.

On to `Cc1c(N2CCC3(CC2)CO[C@@H](C)[C@H]3N)nc(C)n(-c2cccc(Br)c2Cl)c1=O` [Compound 95, 6-((3S,4S)-4-Amino-3-methyl-2-oxa-8-aza-spiro[4.5]dec-8-yl)-3-(3-bromo-2-chloro-phenyl)-2,5-dimethyl-3H-pyrimidin-4-one], for which the IC50 in the assay with pERK1/2 in KYSE520 cells (Homo sapiens, KYSE-520, 2 h) was 604 nM; in assay [1] (setting [2]), 0.027 µM.

Turning to `Cc1nc(N2CCC3(CCC3N)CC2)cc(=O)n1-c1cccc(Cl)c1Cl` (centres unmarked) [Compound 35, 6-{1-amino-7-azaspiro[3.5]nonan-7-yl}-3-(2,3-dichlorophenyl)-2-methyl-3,4-dihydropyrimidin-4-one], the IC50 in the assay with pERK1/2 in KYSE520 cells (Homo sapiens, KYSE-520, 2 h) stood at 600 nM; in assay [1] (setting [2]), 0.56 µM.

Regarding `Cc1c(N2CCC3(CCC[C@H]3N)CC2)nc(C)n(-c2cccc(Cl)c2Cl)c1=O` [Compound 67b, (3M)-6-[(1R)-1-amino-8-azaspiro[4.5]decan-8-yl]-3-(2,3-dichlorophenyl)-2,5-dimethyl-3,4-dihydropyrimidin-4-one], the IC50 in the assay with pERK1/2 in KYSE520 cells (2 h) came out at 198 nM; in assay [1] (setting [2]), 0.041 µM.

For `COc1c(F)ccc(-n2c(C)nc(N3CCC4(CC3)Cc3ccccc3[C@H]4N)c(C)c2=O)c1F` [Compound 105, 6-[(1S)-1-amino-1,3-dihydrospiro[indene-2,4′-piperidin]-1′-yl]-3-(2,4-difluoro-3-methoxyphenyl)-2,5-dimethyl-3,4-dihydropyrimidin-4-one], the IC50 with pERK1/2 in KYSE520 cells (Homo sapiens, KYSE-520, 2 h) is 10 nM; in assay [1] (setting [2]), 0.006 µM.

Regarding `Cc1nc(N2CCC3(CCC[C@H]3N)CC2)cc(=O)n1-c1cccc(Cl)c1Cl` (single isomer, unassigned) [Compound 62b], the IC50 in the assay with pERK1/2 in KYSE520 cells (Homo sapiens, KYSE-520, 2 h) is 526 nM; in assay [1] (setting [3]) it was 0.081 µM.
